Test results as given in US20070218189A1, “Reduction inhibitory agent for active oxygen eliminating-activity” (KABUSHIKI KAISHA HAYASHIBARA SEIBUTSU KAGAKU KENYUJO, priority 2001, published 2007).

Key:
Format in all cases: biochemical
[1] = system: superoxide, formed in a xanthine-xanthine oxidase system; assay: Influence of cyclotetrasaccharide concentration on active oxygen eliminating activity of powdery carrot compositions, NBT test (Experiment 5); details: for Activity (unit/g) After storage / Percentage of residual activity (%): 40° C. seven days
Experimental: (§1) Fresh raw carrots were disrupted by a mixer, and saccharides were respectively added to the mixture and dissolved therein to give a concentration of 10%, d.s.b. The solutions were dried under a reduced pressure at 40° C. for two days, dried in vacuo at the same temperature for 24 hours, and pulverized by a mixer into powdery carrot compositions. […] An about 100 g each of the compositions was placed and sealed in a 500-ml polystyrene container, and stored at 40° C. for seven days. The active oxygen eliminating activities of the compositions before and after storage were compared with each other. The active oxygen eliminating activity was assayed by the nitro blue tetrazolium (NBT) test by Toshio IMANARI et al. in Igakuno Ayumi, Vol. 101, pp. 496-497 (1977), and the level of superoxide, formed in a xanthine-xanthine oxidase system, was assayed by quantifying calorimetrically the content of formazan formed by reducing NBT. As a control, refined water was used as a test solution. One unit activity of active oxygen eliminating activity was defined as that inhibited 50% formazan formation as compared with the control. […] Thus cyclotetrasaccharide is preferable as an effective ingredient for a reduction inhibitory agent for active oxygen eliminating activity.
Similarly as in Experiment 3, cyclotetrasaccharide was respectively mixed with and dissolved in disrupted carrots to give concentrations of 0-20%, d.s.b. The resulting mixtures were dried in vacuo at 40° C. for 24 hours, and pulverized into powdery carrot compositions. Similarly as in Experiment 3, each powdery composition was placed and sealed in a polystyrene container, and stored at 40° C. for seven days for evaluating the reduction inhibitory activity for active oxygen activity. The active oxygen eliminating activity of one gram each of powdery compositions before and after storage was measured by the method in Experiment 3.

[2] = system: superoxide, formed in a xanthine-xanthine oxidase system; assay: Active oxygen eliminating activity of powdery vegetable compositions with or without cyclotetrasaccharide before and after storage (Experiment 6); details: carrot, onion, Japanese radish, cabbage, spinach, cucumber, pumpkin; in words
[3] = system: active oxygen; assay: Active oxygen eliminating activity of superoxide dismutase and antioxidants in cyclotetrasaccharide solution or water before and after storage (Experiment 7); details: 30% (w/v) cyclotetrasaccharide solution; superoxide dismutase, α-glucosyl hesperidin, α-glucosyl rutin, gallic acid, catechin; in words
Experimental: In one milliliter of 30% (w/v) cyclotetrasaccharide solution, which is prepared by using cyclotetrasaccharide obtained in Experiment 2, was dissolved five micrograms (μ g) of superoxide dismutase from a horseradish commercialized by Sigma Chemical Co., St. Louis, USA, 10 mg of α-glucosyl hesperidin commercialized by Hayashibara Biochemical Laboratories, Inc., Okayama Japan, 10 mg of α-glucosyl rutin commercialized by Hayashibara Biochemical Laboratories, Inc., Okayama, Japan, 250 μg of gallic acid commercialized by Wako Pure Chemical Industries, Ltd., Tokyo, Japan, or 50 μg of catechin to obtain a liquid composition. Each of the compositions was placed in a glass test tube, sealed with a rubber cap, and stored under a dark condition. As a control, water was used in place of the cyclotetrasaccharide solution.

[4] = system: superoxide, formed in a xanthine-xanthine oxidase system; assay: Active oxygen eliminating activity of powdery carrot compositions with saccharides before and after storage, nitro blue tetrazolium (NBT) test (Experiment 3)
Experimental: as §1

[5] = system: superoxide, formed in a hypoxanthine-xanthine oxidase system; assay: Active oxygen eliminating activity of powdery carrot compositions with saccharides before and after storage, electron spin resonance (ESR) test (Experiment 4)
Experimental: Fresh raw carrots were disrupted as Experiment 3, and saccharides were respectively added to the mixture and dissolved therein to give a concentration of 10%, d.s.b. The solutions were dried under a reduced pressure at 40° C. for one day, dried in vacuo at the same temperature for 17 hours, and pulverized by a mixer into powdery carrot compositions. […] About 100 g each of the compositions was placed and sealed in a 500-ml polystyrene container, and stored at 40° C. for seven or fourteen days. The active oxygen eliminating activities of the compositions before and after storage were compared with each other. The active oxygen eliminating activity was assayed by the electron spin resonance (ESR) test by Toshihiko OZAWA in BUNSEKI, Vol. 2, pp. 68-74 (2000), and the level of superoxide, formed in a hypoxanthine-xanthine oxidase system, was assayed by the spin-trapping with 5,5-dimethyl-1-pyrroline-N-oxide in ESR.

[6] = 0.1% cyclotetrasaccharide added to carrot (content 1.0% d.s.b.)
[7] = 0.5% cyclotetrasaccharide added to carrot (content 4.9% d.s.b.)
[8] = 1.0% cyclotetrasaccharide added to carrot (content 9.4% d.s.b.)
[9] = 2.5% cyclotetrasaccharide added to carrot (content 20.7% d.s.b.)
[10] = 5.0% cyclotetrasaccharide added to carrot (content 34.2% d.s.b.)
[11] = 10.0% cyclotetrasaccharide added to carrot (content 51.1% d.s.b.)
[12] = 20.0% cyclotetrasaccharide added to carrot (content 67.6% d.s.b.)
[13] = powdery carrot composition, saccharide added at 10% d.s.b., stored at 40° C. for seven days

OCC1OC2OCC3O[C@H](O[C@H]4C(O)C(CO)OC(OCC5O[C@H](O[C@@H](C1O)C2O)C(O)C(O)[C@@H]5O)C4O)C(O)C(O)[C@@H]3O (stereo partly drawn) [Cyclotetrasaccharide, cyclo{→6)-α-D-glucopyranosyl-(1→3)-α-D-glucopyranosyl-(1→6)-α-D-glucopyranosyl-(1→3)-α-D-glucopyranosyl-(1→}]
Activity (unit/g) After storage [1, 6]: 390 unit/g
Percentage of residual activity (%) [1, 6]: 42%
Activity (unit/g) Before storage [1, 6]: 930 unit/g
Activity (unit/g) After storage [1, 7]: 470 unit/g
Percentage of residual activity (%) [1, 7]: 57%
Activity (unit/g) Before storage [1, 7]: 820 unit/g
Activity (unit/g) After storage [1, 8]: 450 unit/g
Percentage of residual activity (%) [1, 8]: 61%
Activity (unit/g) Before storage [1, 8]: 740 unit/g
Activity (unit/g) After storage [1, 9]: 460 unit/g
Percentage of residual activity (%) [1, 9]: 66%
Activity (unit/g) Before storage [1, 9]: 700 unit/g
Activity (unit/g) After storage [1, 10]: 340 unit/g
Percentage of residual activity (%) [1, 10]: 62%
Activity (unit/g) Before storage [1, 10]: 550 unit/g
Activity (unit/g) After storage [1, 11]: 290 unit/g
Percentage of residual activity (%) [1, 11]: 69%
Activity (unit/g) Before storage [1, 11]: 420 unit/g
Activity (unit/g) After storage [1, 12]: 280 unit/g
Percentage of residual activity (%) [1, 12]: 64%
Activity (unit/g) Before storage [1, 12]: 390 unit/g
reduction inhibitory activity for active oxygen eliminating activity by incorporating cyclotetrasaccharide [2]: observed in many vegetables
reducing inhibitory activity for active oxygen eliminating activity of plant antioxidants [3]: effective reducing inhibitory activity
Activity (unit/g) After storage [4, 13]: 390 unit/g
Percentage of residual activity (%) [4, 13]: 66%
Activity (unit/g) Before storage ([4]; powdery carrot composition, saccharide added to disrupted carrots at 10% d.s.b., before storage): 590 unit/g
residual percentage / reduction inhibitory activity for active oxygen eliminating activity among the saccharides tested ([4]; powdery carrot compositions, 40° C. seven days, in words): highest residual percentage
Activity (unit/g) Before storage ([5]; powdery carrot composition, saccharide added at 10% d.s.b., before storage): 186 unit/g
Activity (unit/g) After two weeks storage ([5]; powdery carrot composition, stored at 40° C. for fourteen days): 66 unit/g
percentage of residual activity After two weeks storage ([5]; powdery carrot composition, stored at 40° C. for fourteen days, numerals in parentheses): 36%
Activity (unit/g) After one week storage ([5]; powdery carrot composition, stored at 40° C. for seven days): 88 unit/g
percentage of residual activity After one week storage ([5]; powdery carrot composition, stored at 40° C. for seven days, numerals in parentheses): 47%
residual percentage for active oxygen eliminating activity among the saccharides tested ([5]; powdery carrot compositions, in words): highest residual percentage
